Measured values published in US20090197921A1, “USE OF NICOTINE, ANALOGUES, THEREOF, PRECURSORS THEREOF OR D[…] IN THE TREATMENT OF VARIOUS PA[…] CAPABLE OF I[…] a-MSH AD[…] PROPHYLACTIC OR T[…]” (priority 2006, published 2009).

Experiments:
[1] = cited from earlier work
[2] = twenty four hours later
[3] = 2 drops sublingual every hour
Description: Patient with post traumatic bleeding (hyphema). […] We indicated a dosis of 2 drops sublingual pathway every hour, for the hyphema was of 90% the vision was poor and the intraocular pressure was 40 mmHg despite last treatment. All medicine was suspended and began the new treatment.

[4] = Method: Patient they are in the ninth month of pregnant without diabetes or hypertension or neuropathy antecedents. […] Twenty four hours later Amikacina IM every 12 hours was administered. […] It was decided to administrate nicotine in watery vehicle by sublingual pathway in a concentration of 3 mg/ml.
At the beginning 15 drops were administrated and 30 minutes later 10 drops more. […] Nicotine was administrated during 4 weeks in dosis of 5 drops by sublingual pathway every three hours.

For `C/C(=N\N=C(N)N)c1cc(NC(=O)CCCCCCCCC(=O)Nc2cc(/C(C)=N/N=C(N)N)cc(/C(C)=N/N=C(N)N)c2)cc(/C(C)=N/N=C(N)N)c1.Cl.Cl.Cl.Cl` [CNI-1493], the “subyacent renal trauma by ischemia/reperfussion” value ([1]; in vivo) is listed as “does not have effect” and the distant pulmonary trauma ([1]; renal ischemia/reperfussion) is listed as “partialy reduces”.

In the case of `CN1CCCC1c1cccnc1` (stereo not shown) [nicotine], the weight increase [2] was 80 grams, the recovery ([3]; after four weeks) was 90% and the vision ([3]; three weeks later) was 20/40. The pain ([4]; nicotine 3 mg/ml in watery vehicle, sublingual, 15 drops then 10 drops 30 minutes later) was “diminished significantly” and the general physical state ([4]; nicotine 3 mg/ml sublingual) was “improves in the dramatic form”.
